{
  "source": "patent US12441732B2",
  "about": "“Potassium salt crystal form B of phosphodiesterase type 5 inhibitor, and preparation method and use therefor” (Guangzhou Huazhen Pharmaceutical Co., Ltd, priority 2019, dated 2025)",
  "key": {"PAH rats": {"system": "PAH rats", "assay": "Monocrotaline-induced pulmonary arterial hypertension (PAH) rats: RVSP, RVMI, pulmonary arterioles", "format": "in vivo, SD rats", "conditions": "for RVMI, RV/(LV+S) / RVSP: 3 weeks after MCT", "from_the_text": "SD rats were randomly divided into 8 groups, 15 rats/group: a normal control group (Vehicle); a PAH model group (MCT); a PAH+potassium salt crystal form B of WYQ mini-dose group (hereafter referring to as a mini-dose group); a PAH+potassium salt crystal form B of WYQ low-dose group (hereafter referring to as a low-dose group); a PAH+potassium salt crystal form B of WYQ medium-dose group (hereafter referring to as a medium-dose group); a PAH+potassium salt crystal form B of WYQ high-dose group (hereafter referring to as a high-dose group); a PAH+Sildenafil control group (hereafter referring to as a Sildenafil group); a PAH+Tadalafil control group (hereafter referring to as a Tadalafil group).\nMCT was fully dissolved with 1M dilute HCl, diluted with double-distilled water, and adjusted to pH=7.2 with 3M NaOH, thereby preparing a MCT solution with a final concentration of 20 mg/ml.\nThe normal control group was injected subperitoneally with normal saline (50 mg/kg), and the rest of the groups were injected subperitoneally with MCT (50 mg/kg) at one time.\nMini-dose group: the potassium salt crystal form B of WYQ was prepared into a 0.4 mg/ml medicinal solution (ready to use) with normal saline, and administered by gavage at the dose of 2 mg·kg^−1d^−1;\nLow-dose group: the potassium salt crystal form B of WYQ was prepared into a 1 mg/ml medicinal solution (ready to use) with normal saline, and administered by gavage at the dose of 5 mg·kg^−1d^−1;\nMedium-dose group: the potassium salt crystal form B of WYQ was prepared into a 2 mg/ml medicinal solution (ready to use) with normal saline, and administered by gavage at the dose of 10 mg·kg^−1d^−1;\nHigh-dose group: the potassium salt crystal form B of WYQ was prepared into a 4 mg/ml medicinal solution (ready to use) with normal saline, and administered by gavage at the dose of 20 mg·kg^−1d^−1;\nSildenafil group: Sildenafil was prepared into a 5 mg/ml medicinal solution (ready to use) with 0.5% sodium carboxymethyl cellulose, and administered by gavage at the dose of 25 mg·kg^−1d^−1;\nTadalafil group: Tadalafil was prepared into a 2 mg/ml medicinal solution (ready to use) with 0.5% sodium carboxymethyl cellulose, and administered by gavage at the dose of 10 mg·kg^−1d^−1.\nThe day of injection was the starting date of the experiment, and the administration was started after 7 days of modeling, once a day for 14 consecutive days.\nAfter 3 weeks from the starting date of the experiment, RVSP data were collected on RM-6240E polygraph for each group of rats.\nAfter 3 weeks from the starting date of the experiment, the animals were anesthetized, hemodynamically tested (RM-6240E polygraph), and sacrificed after manometry. The cardiopulmonary tissues were immediately dissected, and the right and left atria and great vessels were cut off along the atrioventricular junction with ophthalmic scissors to separate the right ventricle (RV) and left ventricular wall plus septum (LV+S), which was absorbed water with filter paper and weighed respectively, and RV/(LV+S), i.e., RVMI was calculated.\nAfter 3 weeks from the starting date of the experiment, rats were heparinized with heparin (50 IU/100 g, intraperitoneal injection) for 5 min. The animals were anesthetized by injection of 20% urethane solution (0.5 ml/100 g), and the blood pressure indexes were detected and recorded.\nThe heart was dissected, the right ventricular wall was separated, and the left ventricle and the septum were separated, which were absorbed water with filter paper and weighed respectively to calculate the right ventricular hypertrophy index.\nThe lungs were dissected, wherein the right lung was ligated, and the left lung lobe was perfused with a fixative (4% paraformaldehyde) and then fixed in the fixative, dehydrated by ethanol gradient, allowed to become transparent by using xylene, immersed in wax, embedded in paraffin, sectioned (4 μm), stained with hematoxylin-eosin (HE), sealed with neutral gum and then observed under a microscope. […]"}, "UUO model mice": {"system": "UUO model mice", "assay": "Unilateral ureteral obstruction mouse model (UUO model) of renal fibrosis", "format": "in vivo, C57BL/6 mice", "conditions": "5 mg·kg^−1·d^−1 gavage, 7 days", "from_the_text": "Fifteen male C57BL/6 mice were adaptively fed for one week and randomly divided into two groups: a Sham group (a sham-operation group) including 5 mice and a surgical modeling group including 10 mice. Surgical method: the abdominal cavities of the mice in the sham-operation group were opened under anesthesia to free the left ureter without ligation, and then their abdomens were closed and sutured; the left ureters of the mice in the modeling group were ligated under anesthesia. The mice in the modeling group were further randomly divided into two groups: a UUO group (a model group) and a treatment group of the potassium salt crystal form B of WYQ (5 mg/kg), 5 mice in each group.\nThe first gavage administration was started 2 hours after the operation.\n(2) treatment group of the potassium salt crystal form B of WYQ: the potassium salt crystal form B of WYQ was diluted into a 1 mg/ml solution with normal saline and administered by gavage at the dose of 5 mg·kg^−1·d^−1; and\nadministered once a day for consecutive 7 days.\nAfter 7 days of drug administration, all the mice were sacrificed. The abdominal cavity was opened and the left and right kidney tissues were peeled off, caring to maintain the integrity of the kidneys. The kidneys were taken out and quickly transferred to pre-cooled PBS, and the kidneys were cut for different assays. The kidney was divided into four parts with a scalpel, and the dorsal side of the kidney was fixed in 4% paraformaldehyde for making paraffin sections. Morphological changes of kidney tissues were observed by HE staining and Masson staining, and changes of expression of fibrosis marker proteins in kidney tissues were observed by immunohistochemistry."}, "[1]": {"conditions": "high-dose 20 mg·kg^−1d^−1 gavage once a day for 14 days"}, "[2]": {"conditions": "low-, medium- and high-dose groups (5, 10, 20 mg·kg^−1d^−1)"}, "[3]": {"conditions": "low-dose 5 mg·kg^−1d^−1 gavage once a day for 14 days"}, "[4]": {"conditions": "medium-dose 10 mg·kg^−1d^−1 gavage once a day for 14 days"}, "[5]": {"conditions": "mini-dose 2 mg·kg^−1d^−1 gavage once a day for 14 days"}},
  "data": [
    {"smiles": "CCCCOC(=O)[N-]S(=O)(=O)c1cccc(-c2nc3c(CCC)nn(C)c3c(=O)[nH]2)c1.[K+]", "note": "[potassium salt crystal form B]", "values": [
      {"measurement": "RVMI, RV/(LV+S)", "setting": "PAH rats; [1]", "value": "34.6±19", "unit": "%"},
      {"measurement": "RVSP", "setting": "PAH rats; [1]", "value": "29.8±1.6", "unit": "mmHg"},
      {"measurement": "WT % of pulmonary arterioles vs PAH model group", "setting": "PAH rats; [2]", "value": "decreased and improved significantly"},
      {"measurement": "tunica media thickness of pulmonary arterioles vs PAH model group", "setting": "PAH rats; [2]", "value": "decreased and improved significantly"},
      {"measurement": "RVMI, RV/(LV+S)", "setting": "PAH rats; [3]", "value": "40.6±2.7", "unit": "%"},
      {"measurement": "RVSP", "setting": "PAH rats; [3]", "value": "47.6±1.9", "unit": "mmHg"},
      {"measurement": "RVMI, RV/(LV+S)", "setting": "PAH rats; [4]", "value": "38.7±2.1", "unit": "%"},
      {"measurement": "RVSP", "setting": "PAH rats; [4]", "value": "40.7±1.5", "unit": "mmHg"},
      {"measurement": "RVMI, RV/(LV+S)", "setting": "PAH rats; [5]", "value": "42.8±2.1", "unit": "%"},
      {"measurement": "RVSP", "setting": "PAH rats; [5]", "value": "56.2±0.5", "unit": "mmHg"},
      {"measurement": "FN1 protein expression level in kidney tissue (immunohistochemistry)", "setting": "UUO model mice", "value": "significantly reduced"},
      {"measurement": "fibrosis area in the renal fibrosis lesions vs UUO model group", "setting": "UUO model mice", "value": "significantly decrease"},
      {"measurement": "proliferation of renal interstitial collagen fibers", "setting": "UUO model mice", "value": "reduced"},
      {"measurement": "inflammatory cell infiltration in the kidney", "setting": "UUO model mice; HE staining", "value": "significantly reduced"}
    ]}
  ]
}
